Here are results for four molecules from US9458479B2, “Method for late introduction of the (8R) hydroxyl group carbapenem β-lactam antibiotic synthesis” (THE JOHNS HOPKINS UNIVERSITY, priority 2009, dated 2016).

The test system of one assay is ThnG. Kind of assay: In vitro reaction of carbapenam/ems with purified ThnG, HPLC and ESI-MS analysis of products. It counts as biochemical, Streptomyces cattleya. The conditions noted are these: 1 mM substrate, 0.2 mg/mL ThnG, 25 mM MOPS pH 7.0, ferrous ammonium sulfate, α-KG, ascorbate, room temperature 1 h. As for the experimental part: (§1) Thienamycin biosynthetic cluster genes thnG and thnQ were cloned from genomic DNA and inserted into pET29b each bearing a C-terminal His6-tag. The recombinant proteins were overproduced in E. coli Rosetta2(DE3) and purified by Ni-NTA affinity chromatography. In vitro reactions in MOPS, pH 7.0, containing Fe(NH4)2(SO4)2, α-KG, ascorbate, the subject carbapenam/em, and either ThnG or ThnQ were incubated and analyzed by HPLC for the formation of new product(s). Salowe, S. P., et al., Biochemistry 29(27):6499-6508 (1990); Decristoforo, G. Anal. Chim. Acta 163(SEP):25-33 (1984). […] The products were immediately identifiable as carbapenems by their unique chromophores (λmax=290-320 nm). ThnQ produced a single new product more polar than 5, while ThnG produced two products, one with a shorter retention time and one with a longer retention time than that of 5.
For routine HPLC analysis, reactions were assembled containing 25 mM MOPS, pH 7.0, 1 mM ascorbate, 0.08 mM ferrous ammonium sulfate, 8 mM α-ketoglutarate (α-KG), 1 mM of the substrate and 0.2 mg/mL ThnG or ThnQ. Salowe, S. P., et al., Biochemistry 29(27):6499-6508 (1990). After addition of the protein, the reactions were incubated at room temperature for 1 h. The protein was then removed with an Amicon Ultra 10,000 MWCO filter. For ESI mass spectroscopic analysis of HPLC purified enzymatic products, reactions were assembled under similar conditions except containing 2 mM substrate, 2 mM ascorbate and 0.6 mg/mL ThnG or ThnQ.
HPLC conditions: Phenomenex Luna 5 μC18(2) analytical column; Method 1, A=50 mM ammonium formate pH 8.5, B=MeOH, t=0 min 0% B, t=10 min 35% B, t=13 min 35% B, t=15 min 0% B, t=20 min 0% B. Method 2, A=50 mM ammonium formate pH 8.5, B=MeOH, t=0 min 0% B, t=10 min 33% B, t=18 min 33% B, t=20 min 0% B, t=25 min 0% B. λ=300 nm (carbapenem) or 220 nm (carbapenam). Decristoforo, G., Anal. Chim. Acta 163:25-33 (1984). Purified carbapenems were collected from the HPLC and analyzed directly by ESI mass spectrometry in the negative ion mode.

A further assay relates to ThnQ. Kind of assay: In vitro reaction of carbapenam/ems with purified ThnQ, HPLC and ESI-MS analysis of products. In kind it is biochemical, Streptomyces cattleya. The conditions noted are these: 1 mM substrate, 0.2 mg/mL ThnQ, 25 mM MOPS pH 7.0, ferrous ammonium sulfate, α-KG, ascorbate, room temperature 1 h. As for the experimental part: as §1, with “5. […]” for “5.”
HPLC conditions: Phenomenex Luna 5 μC18(2) analytical column; Method 1, A=50 mM ammonium formate pH 8.5, B=MeOH, t=0 min 0% B, t=10 min 35% B, t=13 min 35% B, t=15 min 0% B, t=20 min 0% B. Method 2, A=50 mM ammonium formate pH 8.5, B=MeOH, t=0 min 0% B, t=10 min 33% B, t=18 min 33% B, t=20 min 0% B, t=25 min 0% B. λ=300 nm (carbapenem) or 220 nm (carbapenam). […] Purified carbapenems were collected from the HPLC and analyzed directly by ESI mass spectrometry in the negative ion mode.

On to `CC(=O)NCCSC1=C(C(=O)O)N2C(=O)[C@H]([C@@H](C)O)[C@H]2C1` [compound 2, N-acetyl thienamycin], for which, in the assay on ThnG, the “product(s) of the ThnG-catalyzed reaction (HPLC, ESI-MS)” value is on record as “N-acetyl dehydrothienamycin (3)”.
For `CC[C@H]1C(=O)N2C(C(=O)O)=C(SCCNC(C)=O)C[C@H]12` [compound 5, PS-5], the “product(s) of the ThnQ-catalyzed reaction (HPLC, ESI-MS)” value with ThnQ is recorded as “stereospecifically hydroxylated PS-5 (5) to produce 2”. Moreover, in the assay on ThnG, the “product(s) of the ThnG-catalyzed reaction (HPLC, ESI-MS)” value is “identified as PS-7 (7) and PS-7 sulfoxide 9”.
As to `CCC1C(=O)N2C(C(=O)O)=C(S/C=C/NC(C)=O)CC12` (stereo not drawn) [compound 7, PS-7], the “product(s) of the ThnQ-catalyzed reaction (HPLC, ESI-MS)” value in the assay on ThnQ is given as “N-acetyl dehydrothienamycin (3)”. Besides, the “product(s) of the ThnG-catalyzed reaction (HPLC, ESI-MS)” value with ThnG is “able to convert 7 to its sulfoxide”.
Turning to `CCC1C(=O)N2C(C(=O)O)=C([S+]([O-])CCNC(C)=O)CC12` (stereo not drawn) [compound 8, PS-5 sulfoxide], the “product(s) of the ThnG-catalyzed reaction (HPLC, ESI-MS)” value in the assay with ThnG was “unable to catalyze desaturation”.
